According to patent US10091997B2, “Composition for inhibition of insect host sensing” (Vanderbilt University, priority 2010, dated 2018):

How the values were obtained:
AgORco+AgOR10 = experiment: plate-based Fluo-4 Ca2+ imaging in stable HEK293 cell lines; set-up: species or system Anopheles gambiae; details: AgORco+AgOR10 HEK293 cells; not seen in control cells
Description: For transient transfections, ORs were cloned into pCI (Promega) and transfected into Flp-In™ T-REx™293 cell lines (Invitrogen) with Fu GENE6 (Roche). For the creation of stable cell lines, a cell culture expression vector capable of expressing AgORco in conjunction with a conventional OR, pcDNA5/FRT/TO (Invitrogen) was modified to create two individual expression cassettes each under the control of a separate CMV/TetO2 promoter and a BGH poly-adenylation signal. Cells (as above) were transfected with the modified pcDNA5 plasmid along with POG44 (a Flp recombinase expression plasmid) to facilitate site-specific recombination. Stable cell lines were selected using Hygromycin B (Invitrogen). Cells were maintained in DMEM (Invitrogen) supplemented with 10% Tetracycline-free FBS (HyClone) and 15 μg/ml Blasticidin. For fluorometric Ca^2+ measurements, stable lines expressing ORs of interest were seeded at 20,000 cells/well in black wall, poly-lysine coated 384-well cell culture plates (Greiner) and treated with […] tetracycline (Sigma) overnight to induce OR expression. Cells were dye-loaded with 1.8 μM Fluo-4 AM (Molecular Probes), 2.5 mM Probenecid (Molecular Probes) in assay buffer (20 mM HEPES, 1×HBSS) for 45 minutes at 37° C. in 5% CO2 prior to each assay. […] Baseline readings were taken for 20 s before automated addition of compound previously diluted in DMSO and assay buffer. […]

AgORco = target: T1, AgORco (Anopheles gambiae, UniProt Q7QCC7); experiment: single-channel recording, outside-out patches from AgORco-expressing HEK293 cells; type: cell-based
T1 construct: expressed in transfected cells
T1 sequence (Q7QCC7 1-478): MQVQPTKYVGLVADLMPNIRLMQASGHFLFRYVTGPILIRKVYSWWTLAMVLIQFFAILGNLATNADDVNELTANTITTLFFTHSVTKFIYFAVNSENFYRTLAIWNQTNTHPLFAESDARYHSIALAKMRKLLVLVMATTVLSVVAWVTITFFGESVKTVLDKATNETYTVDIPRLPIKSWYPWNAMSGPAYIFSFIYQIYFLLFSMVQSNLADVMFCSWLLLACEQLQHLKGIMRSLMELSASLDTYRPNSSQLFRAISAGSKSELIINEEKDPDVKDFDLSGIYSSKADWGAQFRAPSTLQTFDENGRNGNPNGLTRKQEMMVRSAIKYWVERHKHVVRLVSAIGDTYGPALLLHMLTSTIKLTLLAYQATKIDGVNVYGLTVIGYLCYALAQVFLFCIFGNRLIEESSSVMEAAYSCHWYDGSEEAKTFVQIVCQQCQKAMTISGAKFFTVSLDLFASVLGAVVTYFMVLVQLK
Experimental: Currents from OR-expressing HEK293 cells were amplified with an Axopatch 200b Amplifier (Axon Instruments) and digitized through a Digidata 1322A (Axon Instruments). Electrophysiological data was recorded and analyzed using pCLAMP 10 (Axon Instruments). Electrodes were fabricated from quartz tubing (Sutter Instruments) and pulled to 4-6 MΩ for whole cell recording. Electrodes were filled with internal solution (120 mM KCl, 30 mM D-glucose, 10 mM HEPES, 2 mM MgCl2, 1.1 mM EGTA, and 0.1 CaCl2 (pH 7.35, 280 mOsm). External (bath) solution contained 130 mM NaCl, 34 mM D-glucose, 10 mM HEPES, 1.5 mM CaCl2, 1.3 mM KH2PO4, and 0.5 MgSO4 (pH 7.35, 300 mOsm). Compounds were diluted in external solution and locally perfused to the recording cell using Perfusion Pencil (Automate Scientific) and controlled by a ValveLink 8.2 controller (Automate Scientific). Whole cell recordings were sampled at 10 kHz and filtered at 5 kHz. Outside-out patches were obtained using 10-15MΩ electrodes pulled from standard glass capillaries (World Precision Instruments) and fire-polished with an MF-830 micro forge (Narishige). Single channel recordings were sampled at 20 kHz. Recordings were reduced to 1 kHz and low-pass filtered at 500 Hz for display and analysis using QuB (SUNY at Buffalo).
In the next set of studies, outside-out membrane patches were excised from AgORco-expressing cells to examine single-channel currents evoked by VUAA1 (FIG. 5A). Here, spontaneous channel opening was observed before VUAA1 stimulation, but with very low probability (Po=0.02) (FIG. 5B). During a 5 s application of VUAA1 channel opening probability increased to Po=0.38 (FIG. 5C). Subsequent to agonist washout, channel opening probability decreased to 0.00 (FIG. 5D). The average unitary current of AgORco was 1.3±0.3 pA (mean±st. dev.) (FIG. 5C, inset) which is consistent with earlier single-channel studies of insect ORs (Sato et al., 2008).

CCc1ccc(NC(=O)CSc2nnc(-c3cccnc3)n2CC)cc1 [VUAA1]
Ca2+ imaging response (AgORco+AgOR10): concentration-dependent responses
channel opening probability (Po) during application (AgORco; 5 s application of −4.0 log M, outside-out patch held at −60 mV, Po=0.02 before stimulation): 0.38
average unitary current of AgORco (AgORco; during VUAA1 application, mean±st. dev.): 1.3±0.3 pA
channel opening probability after agonist washout (AgORco; outside-out patch, after washout): 0.00
